# System: male Wistar rats
# Test: Pulmonary paracellular permeability to 125I labelled human serum albumin after intratracheal Pseudomonas aeruginosa LPS
# Type: in vivo, rat
# Description: Pulmonary permeability was measured by means of a tracer, ^125I -labelled human serum albumin which, after intratracheal infusion, was determined in urine, plasma, lung tissue and bronchoalveolar lavage fluid.
# For this experiment, three groups of 6 male Wistar rats (200-225 g) were pretreated either with ML-7 by the IP route (3 mg/kg then 1 mg/kg 3 times a day for 48 h) or the vehicle (ethanol 10%). One hour after the next-to-last administration of ML-7, under urethane anesthesia ([…] IP), a slow intratracheal infusion of 150 μl of an iso-osmolar solution (5% bovine albumin +PBS) containing the tracer and containing (2 groups) or not containing (control group) LPS (1 μg/rat) was given.
# Four hours after the intratracheal infusion, urine, blood, bronchoalveolar lavage (BAL) and lungs were harvested and ^125I radioactivity was measured on each sample.
smiles,measurement,setting,value
"O=S(=O)(c1cccc2c(I)cccc12)N1CCCNCC1 [ML-7, 1-(5-iodonaphtalene-1-sulfonyl)-1H-hexahydro-1,4-diazepine]",LPS-induced increase in pulmonary permeability,ML-7 pretreatment IP 3 mg/kg then 1 mg/kg 3 times a day for 48 h,inhibited
same,"effect on vascular endothelial cells (endothelium permeability, tone, pulmonary circulating hemodynamics)",inferred from unchanged plasma radioactivity,does not present effect

# From patent US20030125321A1, “Methods and compositions for treating respiratory pathologies” (priority 2001, published 2003)
